Test: Stability of cannabinoid compounds and Vitamin E components in Beverage 2 (AB Red) by LCMSMS
Format: physicochemical

In the case of `C=C(C)[C@@H]1CCC(C)=C[C@H]1c1c(O)cc(CCC)cc1O` [CBDV, cannabidivarin], the “Stability of Plant-Derived Cannabinoid Compounds in AB Red” value (“Stability” below) (stored at 8° C., 0 days) is reported as 0.200 µg/mL, the “Stability” value (stored at 8° C., 1 days) is reported as 0.194 µg/mL and the “Stability” value (stored at 8° C., 2 days) is reported as 0.197 µg/mL. For the same compound, the “Stability” value (stored at 8° C., 3 days) was 0.199 µg/mL, the “Stability” value (stored at 8° C., 5 days) was 0.198 µg/mL and the “Stability” value (stored at 8° C., 8 days) was 0.198 µg/mL. For the same compound, the “Stability” value (stored at 8° C., 9 days) was 0.201 µg/mL, the “Stability” value (stored at 8° C., 10 days) was 0.194 µg/mL and the “Stability” value (stored at 8° C., 11 days) was 0.195 µg/mL. For the same compound, the “Stability” value (stored at 8° C., 12 days) was 0.198 µg/mL, the “Stability” value (stored at 8° C., 15 days) was 0.194 µg/mL and the “Stability” value (stored at 8° C., 16 days) was 0.195 µg/mL. The “Stability” value (stored at 8° C., 17 days) was 0.195 µg/mL, the “Stability” value (stored at 8° C., 18 days) was 0.195 µg/mL and the “Stability” value (stored at 8° C., 19 days) was 0.199 µg/mL. For the same compound, the “Stability” value (stored at 8° C., 22 days) was 0.200 µg/mL, the “Stability” value (stored at 8° C., 23 days) was 0.194 µg/mL and the “Stability” value (stored at 8° C., 24 days) was 0.197 µg/mL. The “Stability” value (stored at 8° C., 25 days) was 0.199 µg/mL, the “Stability” value (stored at 8° C., 26 days) was 0.199 µg/mL and the “Stability” value (stored at 8° C., 29 days) was 0.197 µg/mL. The “Stability” value (stored at 8° C., 30 days) was 0.200 µg/mL, the “Stability” value (stored at 8° C., 60 days) was 0.199 µg/mL and the “Stability” value (stored at 8° C., 90 days) was 0.196 µg/mL. The “Stability” value (stored at 8° C., 120 days) was 0.193 µg/mL, the “Stability” value (stored at 8° C., 150 days) was 0.198 µg/mL and the “Stability” value (stored at 8° C., 180 days) was 0.192 µg/mL. The “Stability” value (stored at 8° C., 210 days) was 0.193 µg/mL, the “Stability” value (stored at 8° C., 240 days) was 0.192 µg/mL and the “Stability” value (stored at 8° C., 270 days) was 0.195 µg/mL. The “Stability” value (stored at 8° C., 300 days) was 0.193 µg/mL, the “Stability” value (stored at 8° C., 330 days) was 0.191 µg/mL and the “Stability” value (stored at 8° C., 360 days) was 0.193 µg/mL. For the same compound, the “Stability” value (stored at 8° C., 390 days) was 0.194 µg/mL, the “Stability” value (stored at 8° C., 420 days) was 0.193 µg/mL and the “Stability” value (stored at 8° C., 450 days) was 0.195 µg/mL. The “Stability” value (stored at 8° C., 480 days) was 0.190 µg/mL, the “Stability” value (stored at 8° C., 510 days) was 0.184 µg/mL and the “Stability” value (stored at 8° C., 540 days) was 0.185 µg/mL. For the same compound, the “Stability” value (stored at 8° C., 570 days) was 0.183 µg/mL, the “Stability” value (stored at 21-25° C., 0 days) was 0.20 µg/mL and the “Stability” value (stored at 21-25° C., 1 days) was 0.20 µg/mL. The “Stability” value (stored at 21-25° C., 2 days) was 0.20 µg/mL, the “Stability” value (stored at 21-25° C., 3 days) was 0.20 µg/mL and the “Stability” value (stored at 21-25° C., 5 days) was 0.19 µg/mL. The “Stability” value (stored at 21-25° C., 8 days) was 0.20 µg/mL, the “Stability” value (stored at 21-25° C., 9 days) was 0.20 µg/mL and the “Stability” value (stored at 21-25° C., 10 days) was 0.20 µg/mL. The “Stability” value (stored at 21-25° C., 11 days) was 0.20 µg/mL, the “Stability” value (stored at 21-25° C., 12 days) was 0.20 µg/mL and the “Stability” value (stored at 21-25° C., 15 days) was 0.20 µg/mL. The “Stability” value (stored at 21-25° C., 16 days) was 0.19 µg/mL, the “Stability” value (stored at 21-25° C., 17 days) was 0.20 µg/mL and the “Stability” value (stored at 21-25° C., 18 days) was 0.20 µg/mL. For the same compound, the “Stability” value (stored at 21-25° C., 19 days) was 0.19 µg/mL, the “Stability” value (stored at 21-25° C., 22 days) was 0.20 µg/mL and the “Stability” value (stored at 21-25° C., 23 days) was 0.19 µg/mL. For the same compound, the “Stability” value (stored at 21-25° C., 24 days) was 0.19 µg/mL, the “Stability” value (stored at 21-25° C., 25 days) was 0.19 µg/mL and the “Stability” value (stored at 21-25° C., 26 days) was 0.19 µg/mL. For the same compound, the “Stability” value (stored at 21-25° C., 29 days) was 0.19 µg/mL, the “Stability” value (stored at 21-25° C., 30 days) was 0.20 µg/mL and the “Stability” value (stored at 21-25° C., 60 days) was 0.20 µg/mL. For the same compound, the “Stability” value (stored at 21-25° C., 90 days) was 0.19 µg/mL, the “Stability” value (stored at 21-25° C., 120 days) was 0.19 µg/mL and the “Stability” value (stored at 21-25° C., 150 days) was 0.20 µg/mL. For the same compound, the “Stability” value (stored at 21-25° C., 180 days) was 0.20 µg/mL, the “Stability” value (stored at 21-25° C., 210 days) was 0.19 µg/mL and the “Stability” value (stored at 21-25° C., 240 days) was 0.20 µg/mL. The “Stability” value (stored at 21-25° C., 270 days) was 0.20 µg/mL, the “Stability” value (stored at 21-25° C., 300 days) was 0.19 µg/mL and the “Stability” value (stored at 21-25° C., 330 days) was 0.19 µg/mL. For the same compound, the “Stability” value (stored at 21-25° C., 360 days) was 0.19 µg/mL, the “Stability” value (stored at 21-25° C., 390 days) was 0.19 µg/mL and the “Stability” value (stored at 21-25° C., 420 days) was 0.19 µg/mL. For the same compound, the “Stability” value (stored at 21-25° C., 450 days) was 0.19 µg/mL, the “Stability” value (stored at 21-25° C., 480 days) was 0.19 µg/mL and the “Stability” value (stored at 21-25° C., 510 days) was 0.19 µg/mL. For the same compound, the “Stability” value (stored at 21-25° C., 540 days) was 0.19 µg/mL and the “Stability” value (stored at 21-25° C., 570 days) was 0.18 µg/mL.
